Earlier results on 1 compound are cited in patent US5773459A, “Urea- and thiourea-type compounds” (Sugen, Inc., priority 1995, dated 1998).

Each structure is given as a SMILES string.

The test system of series [1] is human breast cancer cells. As to conditions: Sepp-Lorenzino et al., Abstract, 1994; cited from earlier work.
Series [2] deals with IGF-1R protein tyrosine kinase. As to conditions: Sepp-Lorenzino et al., Abstract, 1994; cited from earlier work.

In the case of `CO[C@H]1[C@@H](OC)C[C@H](C)[C@@H](OC)C2=CC(=O)C=C(NC(=O)/C(C)=C/C=C\[C@H](OC)[C@@H](OC(N)=O)/C(C)=C/[C@@H]1C)C2=O` [Herbimycin A], the “inhibition of cellular proliferation in human breast cancer cells” value in series [1] is given as “inhibit”. Moreover, in series [2], the “inhibition of the IGF-1R protein tyrosine kinase” value is on record as “inhibit”.
